Reference: PMC6627331, “Identification of Small Molecule Inhibitors of Staphylococcus aureus RnpA” (Antibiotics, 2019)
In brackets after ≈: the same amount, converted by molar mass. Read-outs that look alike come from different tables or passages of the source.

Experiments:
[1] = system: Galleria mellonella; test: Galleria mellonella single tolerated dose (uninfected worms); assay type: in vivo; conditions: single dose 100 mg·kg^−1, 16 h
Experimental: (§1) An overnight culture of S. aureus strain UAMS-1 was used to inoculate (1:100 dilution) 25 mL of fresh MH medium and growth at 37 °C on a rotary shaker at 225 rpm to exponential phase (~1 × 10^8 CFU mL^−1). Cultures were pelleted by centrifugation, washed with phosphate buffered saline (PBS), and re-suspended at ~1 × 10^7 CFU·mL^−1 in fresh PBS. G. mellonella larvae weighing 150–250 mg were inoculated with 5 µL of S. aureus into the last left proleg using a 10 µL Hamilton syringe. About 1 h after inoculation, one group of worms was treated with 2 µL DMSO as infected negative control; one group was treated with 2 µL JC2 compound at 100 mg/kg dose; another group was treated with 2 µL vancomycin at 100 mg/kg dose as standard-of-care comparison. Treatments were administered in the same manner as infection, except that each injection was in the next left proleg moving towards the head of the worm. […] In addition to the mock or compound treatment of infected larvae, a group of non-infected worm injected with DMSO or corresponding compounds were used to monitor the impact of physical trauma as well as observe toxicity associated with compound treatment.

[2] = system: S. aureus strain UAMS-1, USA300 or BAA-1708; test: Selection of spontaneous resistant cells in liquid culture; assay type: cell-based, Staphylococcus aureus; conditions: 24 h incubation in liquid culture, 2× MIC
[3] = system: E. coli; test: Antimicrobial activity toward E. coli; assay type: cell-based, Escherichia coli
[4] = system: S. aureus UAMS-1; test: Minimum inhibitory concentration (MIC) testing; assay type: cell-based, Staphylococcus aureus
Experimental: Minimum inhibitory concentration (MIC) testing was performed using to Clinical & Laboratory Standards Institute (CLSI) guidelines. Accordingly, individual wells of a 96-well microtiter plate were inoculated with 10^4 colony forming units (CFU) of S. aureus UAMS-1 containing two-fold increasing concentrations (0 to 256 μg·mL^−1) of the indicated antibiotic or putative RnpA inhibitor compound, and incubated at 37 °C for 16 h in MHB. The MIC was defined as the lowest concentration of compound in which there was no visible bacterial growth in the well.

[5] = system: S. aureus BAA-1708; test: MIC against clinical strain BAA-1708; assay type: cell-based, Staphylococcus aureus; conditions: S. aureus clinical strain BAA-1708
[6] = system: S. aureus UAMS-1; test: Fractional inhibitory concentration (FIC) testing; assay type: cell-based, Staphylococcus aureus; conditions: checkerboard, 16 h
Experimental: Fractional inhibitory concentration (FIC) testing was performed to determine the combined effects of the indicated antibiotic and the putative RnpA inhibitor following the procedures of Odds and colleagues. To do so, individual wells of a 96-well microtiter plate were inoculated with 10^4 colony forming units (CFU) of S. aureus UAMS-1 in MHB. Each row of the plate contained two-fold increasing concentrations of the indicated antibiotic (0, 0.03, 0.06, 0.125, 0.25, 0.5, 1, 2, or 4× MIC), whereas each column contained increasing concentrations of the putative RnpA inhibitor compound (0, 0.03, 0.06, 0.125, 0.25, 0.5, 1, 2, or 4× MIC). Plates were incubated at 37 °C for 16 h and growth was determined by the unaided eye. The FIC was defined using the following formula: FIC = (MIC of Drug A in Combination/MIC of Drug A Alone) + (MIC of Drug B in Combination/MIC of Drug B Alone). A synergistic interaction was defined as an FIC value ≤ 0.5, an additive interaction as 0.5 < FIC < 1, no interaction as 1 ≤ FIC < 4, and an antagonistic interaction as FIC ≥ 4.

[7] = system: all cellular mRNA species of S. aureus UAMS-1; test: Global cellular mRNA turnover (Affymetrix GeneChip); assay type: cell-based, Staphylococcus aureus; conditions: 0.5× MIC; mock (DMSO) 84.8%
Experimental: S. aureus mRNA half-life determinations were performed as previously described. […] Rifampin (Sigma-Aldrich) was added to the culture at a final concentration of 200 μg·mL^−1 to inhibit de novo transcript synthesis. Half of the culture was immediately removed and combined with an equal volume of ice cold acetone:ethanol (1:1 v/v). The remaining culture was returned to the shaking 37 °C incubator for an additional 5 min and then subsequently combined with an equal volume of ice cold acetone:ethanol (1:1 v/v) and stored at −80 °C until processing, as described below.
Briefly, following the manufacturer’s instructions for prokaryotic arrays, reverse transcription was carried out on 10 µg of total bacterial RNA and control eukaryotic poly(A) RNA (Affymetrix). […] Transcript signal intensity values were read using the Affymetrix GeneChip® Scanner, and intensity values for each ORF and intergenic region were averaged among the biological replicates (n ≥ 2). Signals were normalized to the control poly(A) cDNA intensity values using GeneSpring 7.2 software (Agilent Technologies, Redwood City, CA, USA) and the number of transcripts with a decrease in transcript signal of >2-fold were determined.

[8] = system: S. aureus USA300; test: MIC against clinical strain USA300; assay type: cell-based, Staphylococcus aureus
[9] = system: HepG2 cells; test: MTT human cell cytotoxicity testing; assay type: cell-based; conditions: SAR figures; 4× MIC exposure for 24 h
Experimental: Human HepG2 hepatocytes were seeded in individual wells of a 96-well cell-culture treated microtiter plate at a concentration of 1 × 10^5 cells per well and incubated in Dulbecco’s Modified Eagle Medium (DMEM) supplemented with 10% fetal bovine serum at 37 °C with 5% carbon dioxide overnight. Cells were then treated with DMSO (negative control) or the indicated agent for 24 h. MTT Cell Proliferation Assay Kits were used to assess viability according to the manufacturer’s recommendations (American Type Culture Collection; Manassas, VA, USA).

[10] = system: S. aureus UAMS-1; test: Galleria mellonella model of S. aureus infection; assay type: in vivo; conditions: 10^4 CFU UAMS-1, single dose 100 mg·kg^−1 1 h post-infection, 16 h; DMSO 60%
Experimental: as §1

CC1CCCCN1C(=O)Nc1cc(Cl)cc(Cl)c1 (centres unmarked) [JC2]
mortality rate of uninfected worms [1]: did not display any treatment-associated lethality | selection of spontaneous resistant cells [2]: unable to select for spontaneous JC2 resistant | antimicrobial activity toward E. coli [3]: did not shown antimicrobial activity | MIC ([4]; S. aureus UAMS-1, 16 h in MHB, listed as 9049625): 1 µg/mL (≈ 3.48 µM) | MIC ([4]; Staphylococcus aureus, UAMS1, 16 h, Table S1, mupirocin synergy screening initial hits, read-out: MIC): 1 µg/mL | MIC ([4]; Staphylococcus aureus, UAMS1, SAR figures, S. aureus UAMS-1, read-out: MIC): 0.5 µg/mL (≈ 1.74 µM) | MIC [5]: 1 µg/mL (≈ 3.48 µM) | MIC ([5]; Staphylococcus aureus, BAA1708, read-out: MIC): 1 µg/mL (≈ 3.48 µM) | FIC in combination with ampicillin [6]: 2 | FIC in combination with erythromycin [6]: 2 | FIC in combination with mupirocin [6]: 0.875 | FIC in combination with trimethoprim [6]: 2 | transcript species with a half-life of ≤5 min [7]: 51.6% | MIC [8]: 0.5 µg/mL (≈ 1.74 µM) | MIC ([8]; Staphylococcus aureus, read-out: MIC): 0.5 µg/mL (≈ 1.74 µM) | MTT = % HepG2 cell survival [9]: 87% | mortality rate of S. aureus infected worms [10]: 30%
